“Also recorded” adds a separate entry of the source.
Legend:
[1] = test system: ER stress response element (ESRE); experiment: ESRE luciferase reporter in transfected endothelial cells; type: cell-based; conditions: stimulated 24 hours
Method: The induction of UPR is mediated by the binding of transcription factors to an ER stress response element (ESRE) featured in the UPR (unfolded protein response) target genes. Endothelial cells were transfected by means of lentiviral transfection using a reporter luciferase construct under the control of ESRE responsive elements. After two days, the transfected cells were stimulated for 24 hours with NOD or dopamine or NPD (N-pivaloyl dopamine, also referred to as N-[2-(3,4-dihydroxyphenyl)ethyl]tert-butylamide), or N-[2-(4-hydroxyphenyl)ethyl]octanamide (referred to as NOT), or medium (control). Chemiluminescence activity of the luciferase was then measured.

[2] = test system: Human umbilical vein endothelial cells (HUVEC); experiment: Hypothermic preservation of HUVEC, LDH release; type: cell-based; conditions: 100 μM for 1 h, then 24 hrs on ice in UW solution
Method: The hypothermic preservation properties of NOD, A-NOD and N-pivaloyl dopamine (also referred to as NPD, or N-[2-(3,4-dihydroxyphenyl)ethyl]tert-butylamide) were examined. Human umbilical vein endothelial cells (HUVEC) were seeded in 24 well plates and grown until confluence. Hereafter, HUVEC were stimulated for 1 h with 100 μM of NOD, A-NOD or NPD. Cells that were not treated (Md) served as control. The medium was aspirated and the cells were stored for 24 hrs on ice in University of Wisconsin (UW) solution. Cell damage was assessed by measuring lactate dehydrogenase (LDH) release, using a commercially available LDH release assay (Roche). To this end, 100 μl of supernatant was added to 100 μl of assay reaction mixture. The plates were incubated for 30 minutes and the absorption (OD490) was assessed. All experimental conditions were performed in triplicate.
An increase in LDH activity correlates with the amount of dead or damaged cells.

VCAM-1 = experiment: TNF-α mediated VCAM-1 expression in HUVEC, immunoblot; type: cell-based, human; conditions: TNF-α 24 h, 100 μM compound
Method: (§1) The anti-inflammatory effects of A-NOD and NOD were examined, specifically as to their impact on TNF-α (tumour necrosis factor alpha) mediated VCAM-1 (vascular cell adhesion molecule 1) expression. Human umbilical vein endothelial cells (HUVEC) were cultured until confluence. Hereafter the cells were stimulated for 24 h with TNF-α in the presence or absence of 100 μM NOD or A-NOD. Cells that were not stimulated (M) served as control. Cells were harvested and lysed in Laemli buffer. Hereafter, 20 μL of the lysates were boiled and subjected to SDS-PAGE. The resulting gel was blotted on PVF membranes and the membrane was subsequently incubated overnight with TBS/Tween/5% dry milk powder to block unspecific binding. The upper part of the membrane was probed with an anti-VCAM-1 antibody and the lower part with an anti-HO1 antibody (heme oxygenase-1). After thoroughly washing the membrane was incubated with appropriate HRP conjugates, bands were visualized using chemoluminescence (shown in FIG. 7).

HO1 (heme oxygenase-1) = experiment: HO1 expression in HUVEC, immunoblot; type: cell-based, human; conditions: TNF-α 24 h, 100 μM compound
Method: as §1

DDIT3 = experiment: UPR target gene transcription by qPCR in endothelial cells; type: cell-based; conditions: 100 μM, 24 h
Method: (§2) Endothelial cells were stimulated for 24 h with 100 μM of NOD, NOT, BB, BBNB or BBNO (see Table 1 for compound structures). RNA was isolated from each sample and transcribed into cDNA. Expression of selected UPR target genes was assessed by qPCR.

HSPA5 = experiment: as above; type: cell-based; conditions: 100 μM, 24 h
Method: as §2

HYOU1 = experiment: as above; type: cell-based; conditions: 100 μM, 24 h
Method: as §2

MANF = experiment: as above; type: cell-based; conditions: 100 μM, 24 h
Method: as §2

Lewis rats [3] = experiment: Effect on body weight in ARF rat model; type: in vivo; conditions: kidneys clamped 45 min, continuous infusion 10 μL/h over 5 days, 40 μmmol/mL
Method: (§3) Kidneys of Lewis rats (n=8) were clamped for 45 min to induce acute renal failure (ARF). Afterwards the rats were treated with continuous infusions (10 μL/h over 5 days) of either saline, dopamine or N-octanoyl dopamine (NOD), using an osmotic minipump. The concentration of dopamine and NOD was 40 μmmol/mL. The rats' body weight was monitored for 5 days.

Lewis rats [4] = experiment: Effect on renal function (serum creatinine) in ARF rat model; type: in vivo; conditions: continuous infusion over 5 days, from day 1 vs saline and day 3 vs dopamine, P<0.05
Method: as §3, with “minipump” for “minipump. The concentration of dopamine”, “the same concentrations as in Example 3.” for “NOD was 40 μmmol/mL.”, “renal function, as measured by the serum creatinine concentration,” for “body weight”

Lewis rats [5] = experiment: Renal histology after ARF (ED1-cell infiltration, necrotic tubulus cells); type: in vivo, rat; conditions: in comparison with saline- and dopamine-treated rats
Description: The kidneys of the Lewis rats of examples 3 and 4 were harvested. The renal tissue was examined with regard to the infiltration by inflammatory ED1-cells and signs of necrotic tubulus cells.

TNF-α = TNF-α activity in renal tissue measured by PCR; type: in vivo, rat; conditions: ARF rats, P<0.01
UPR target genes = experiment: UPR gene transcription of endothelial cells under normoxic and hypoxic conditions (qPCR); type: cell-based; conditions: 100 μM, 24 h
Method: Endothelial cells were cultured for 24 h under normoxic conditions in the presence or absence of 100 μM of NOD or NOT. Cells that were cultured in the absence of either compounds (medium) served as a control. In addition, the cells were cultured under hypoxic conditions for 24 h in the presence or absence of 100 μM NOD or NOT. RNA was isolated and transcribed into cDNA. The expression of a selected set of UPR target genes was assessed by qPCR.

[6] = target: T1, protein disulfide isomerase (PDI) (Homo sapiens, UniProt P07237); experiment: ProteoStat PDI assay kit, fluorescence-based; type: biochemical; conditions: serial dilutions, excitation about 500 nm, emission about 603 nm
T1 construct: purchased
T1 sequence (P07237 18-508): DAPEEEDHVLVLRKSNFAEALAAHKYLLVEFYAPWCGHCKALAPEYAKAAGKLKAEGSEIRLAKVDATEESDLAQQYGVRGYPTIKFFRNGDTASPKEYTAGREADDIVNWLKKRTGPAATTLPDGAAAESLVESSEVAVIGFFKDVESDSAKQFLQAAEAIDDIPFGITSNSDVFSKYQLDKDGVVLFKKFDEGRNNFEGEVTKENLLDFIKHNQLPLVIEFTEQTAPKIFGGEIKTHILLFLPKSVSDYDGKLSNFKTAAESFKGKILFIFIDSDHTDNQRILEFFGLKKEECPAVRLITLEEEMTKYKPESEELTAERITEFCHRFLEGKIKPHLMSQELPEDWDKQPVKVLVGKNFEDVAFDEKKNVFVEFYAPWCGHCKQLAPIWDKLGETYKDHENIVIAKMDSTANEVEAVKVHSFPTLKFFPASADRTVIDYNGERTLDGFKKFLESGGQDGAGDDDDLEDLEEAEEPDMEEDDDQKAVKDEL
Method: Modulation of PDI activity by NOD was examined by using a fluorescence-based commercially available ProteoStat™ PDI assay kit and according to the kit protocol. The protocol was applied to serial dilutions of NOD, which were measured for inhibition of PDI activity using a fluorescent microplate reader at an excitation setting of about 500 nm and an emission filter of about 603 nm.

TRPV-1-receptors = TRPV-1-receptors (Homo sapiens, UniProt Q8NER1); conditions: Greffrath et al. 2011; results in desensitization of the receptor; cited from earlier work
TRPV-1-receptors, sequence (Q8NER1 whole entry): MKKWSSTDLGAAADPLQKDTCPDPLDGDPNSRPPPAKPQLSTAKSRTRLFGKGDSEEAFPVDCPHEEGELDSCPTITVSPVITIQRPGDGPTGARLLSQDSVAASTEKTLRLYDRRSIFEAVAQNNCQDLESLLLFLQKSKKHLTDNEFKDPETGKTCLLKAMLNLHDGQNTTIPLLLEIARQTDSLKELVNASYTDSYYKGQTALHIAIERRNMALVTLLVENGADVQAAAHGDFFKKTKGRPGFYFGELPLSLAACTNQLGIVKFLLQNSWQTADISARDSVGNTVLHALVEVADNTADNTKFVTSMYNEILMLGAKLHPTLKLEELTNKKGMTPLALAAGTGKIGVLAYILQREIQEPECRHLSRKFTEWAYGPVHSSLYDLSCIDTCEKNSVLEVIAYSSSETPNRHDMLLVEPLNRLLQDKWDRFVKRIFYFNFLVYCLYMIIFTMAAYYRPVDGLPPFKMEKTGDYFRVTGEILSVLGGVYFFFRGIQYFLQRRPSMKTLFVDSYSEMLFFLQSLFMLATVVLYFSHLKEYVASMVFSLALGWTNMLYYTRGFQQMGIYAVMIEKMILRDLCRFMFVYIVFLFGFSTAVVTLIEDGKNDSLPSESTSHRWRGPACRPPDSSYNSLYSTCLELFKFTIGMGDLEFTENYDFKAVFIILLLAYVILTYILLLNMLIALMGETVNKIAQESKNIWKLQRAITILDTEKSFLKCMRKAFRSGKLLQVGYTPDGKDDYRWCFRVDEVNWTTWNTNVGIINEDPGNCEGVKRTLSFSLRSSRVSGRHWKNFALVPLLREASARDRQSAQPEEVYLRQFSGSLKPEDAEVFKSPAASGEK

Row | Structure (SMILES) | LDH activity (LDH release, OD490) compared to untreated cell control (Md) [2] | Relative fold-increase of transcription compared to untreated endothelial cells, 2ΔΔ Ct, DDIT3 (DDIT3) [fold] | Relative fold-increase of transcription compared to untreated endothelial cells, 2ΔΔ Ct, HSPA5 (HSPA5) [fold] | Relative fold-increase of transcription compared to untreated endothelial cells, 2ΔΔ Ct, HYOU1 (HYOU1) [fold] | Relative fold-increase of transcription compared to untreated endothelial cells, 2ΔΔ Ct, MANF (MANF) [fold] | other results
1 | CCCCCCCC(=O)NCCc1ccc(OC(C)=O)c(OC(C)=O)c1 [A-NOD, N-(3,4-bisacetoxyphenylethyl)octanamide] | significantly lower | – | – | – | – | ESRE-mediated transcription (luciferase chemiluminescence) [1]: did not significantly induce transcription; anti-VCAM-1 antibody binding (TNF-α mediated VCAM-1 expression) (VCAM-1): in the absence of A-NOD or NOD showed strong anti-VCAM-1 antibody binding in comparison to the cells co-treated with A-NOD or NOD; anti-HO1 antibody binding (HO1 (heme oxygenase-1)): showed anti-HO1 antibody binding
2 | CCCCNC(=O)c1cc(OC(C)=O)ccc1OC(C)=O [BBNB] | – | 0.90 | 0.65 | 0.84 | 0.99 | –
3 | CCCCCCCCNC(=O)c1cc(OC(C)=O)ccc1OC(C)=O [BBNO] | – | 3.74 | 1.08 | 4.72 | 0.96 | –
4 | CC(=O)Oc1ccc(OC(C)=O)c(C(=O)O)c1 [BB] | – | 1.01 | 0.60 | 0.90 | 1.03 | –
5 | CCCCCCCC(=O)NCCc1ccc(O)c(O)c1 [NOD, N-octanoyl dopamine] | significantly lower | 37.80 | 11.40 | 5.17 | 4.53 | change in body weight before and after the ARF (percent of original body weight) (Lewis rats [3]): no significant change; also recorded: not significantly different from 100%; renal function as measured by serum creatinine concentration (Lewis rats [4]): significantly improved renal function; necrotic tissue in kidney (Lewis rats [5]): less necrotic tissue; number of inflammatory ED1-cells in renal tissue (Lewis rats [5]; P<0.01): significantly reduced number of ED1-cells; TNF-α activity in the renal tissue as measured by PCR (TNF-α): significantly reduced; ESRE-mediated transcription (luciferase chemiluminescence) [1]: strongly induce ESRE-mediated transcription; UPR gene transcription under hypoxic conditions (UPR target genes; hypoxic): significantly higher levels of transcription; UPR gene transcription under normoxic conditions (UPR target genes; normoxic): only NOD induced UPR gene transcription; inhibition of PDI activity [6]: inhibits PDI in a dose-dependent manner; anti-VCAM-1 antibody binding (TNF-α mediated VCAM-1 expression) (VCAM-1): in the absence of A-NOD or NOD showed strong anti-VCAM-1 antibody binding in comparison to the cells co-treated with A-NOD or NOD; anti-HO1 antibody binding (HO1 (heme oxygenase-1)): showed anti-HO1 antibody binding; action on TRPV-1-receptors (TRPV-1-receptors): agonist
6 | CCCCCCCC(=O)NCCc1ccc(O)cc1 [NOT, N-[2-(4-hydroxyphenyl)ethyl]octanamide] | – | 1.12 | 0.94 | 1.26 | 1.08 | –
7 | CC(C)(C)C(=O)NCCc1ccc(O)c(O)c1 [NPD, N-[2-(3,4-dihydroxyphenyl)ethyl]tert-butylamide] | significantly lower | – | – | – | – | –
8 | NCCc1ccc(O)c(O)c1 [dopamine, 4-(2-aminoethyl)benzene-1,2-diol] | – | – | – | – | – | body weight lost due to the ARF (Lewis rats [3]; osmotic minipump): ~11%
